# Columns and labels:
# [1] = tested on: nucleus of cells in the cornea; assay: Distribution of FITC-labeled polyamide in the cornea of alkali injury model rats; format: in vivo, rat; settings: 1 hour after administration, 1 μmol/L, 5 μl instilled
# Description: The synthesized FITC polyamide was dissolved in 0.1% acetic acid solution, the concentration was adjusted to 1 μmol/L, 5 μl of the solution was dropped on the central part of the cornea of 8 alkali injury model rats at 1 hour after induction of a trauma. Two animals each were euthanized at 1 hour and on 1, 4, and 7 days after instillation of the FITC polyamide. The eyeball was isolated, embedded in the OCT compound (Miles, Elkhart, Ind., USA) in a plastic container for a frozen section sample, frozen with liquid nitrogen, and stored in an ultra-low temperature refrigerator at −80° C. The sample was thinly sliced into a section of 5 μm and observed under a fluorescence microscope (Olympus Corporation).
# [2] = tested on: rTGF-β1 promoter; assay: Luciferase reporter plasmid assay of rTGF-β1 promoter expression induced by PMA; format: cell-based, rat; settings: luciferase reporter plasmid with rTGF-β1 promoter region
# Description: The reporter gene expression induced by adding PMA was inhibited by adding GBP1201 and GBP1203 but not by the mismatch polyamide.
# [3] = tested on: biotin-labeled double-stranded oligo DNA (target DNA, rat TGF-β1 promoter); assay: Biacore assay of binding affinity for target DNA; settings: surface plasmon resonance
# Description: Biacore assay can measure binding affinity of rTGF-β (GBP1201) PIP for a target DNA in real time.
# Biotin-labeled oligo DNA were annealed to form a double strand, and the double strand was immobilized on a sensor chip SA (Biacore, Uppsala, Sweden) on which streptavidin was immobilized beforehand.
# Dynamics of interactions of rTGF-β (GBP1201) PIP, mismatch (FIG. 41 [a]) and biotin-labeled oligo DNA were investigated using Biacore 2000 System (Biacore, Uppsala, Sweden). Data was processed according to the protocol recommended by Biacore2000.
# [4] = tested on: TGF-β1 protein; assay: Immunohistochemistry test of rat eyes after corneal injury; format: in vivo; settings: day 1 after alkali injury
# Description: At 1 hour and on 1, 4, and 7 days after induction of a corneal injury in rats, the eyeball was isolated and embedded in the OCT compound (Miles, Elkhart, Ind., USA.). The frozen section was sliced into sections having a thickness of 5 μm, and histological and immunohistological analyses were performed. Using rabbit-anti-human Tgf-β1 polyclonal antibody (Yanaihira, Japan, catalog No. Y241) as a primary antibody, the sample was diluted 1000-fold before use. 4 nontrauma corneas as normal controls were used to compare rTGF-β (GBP1201) PIP-treated eyes and mock-treated eyes. To determine the specificity of the primary antibody, a negative control was also included.
# [5] = tested on: alkali burn rat model (cornea); assay: Corneal opacity, ulceration and corneal defect in rats with alkali burn; format: in vivo; settings: 1 μmol/L, 5 μl instilled once daily for 1 week, versus 0.1% aqueous acetic acid control
# Description: 8-week-old male Wister rats were prepared and anesthetized with diethyl ether. Then, 5 μl of 0.5 N sodium hydroxide solution was administered […] to adult Wister rats by instilling the central part of the cornea of both eyes or one eye by a common method according to Saika et al. (Am J. Patho., 2005). At 10 seconds after instillation, the alkali liquid was washed off from the cornea surface with 10 ml of phosphate buffer to prepare an alkali burn rat model.
# At 1 hour after a trauma due an alkali burn was induced (9.00 am), and 1 μmol/L rTGF-β (GBP1201) PIP compound and 1 μmol/L of a mixture of rMMP9AP1 and rMMP9NFkB in 1:1 (hereinafter, also referred to as rMMP9PIP) dissolved in 5 μl of 0.1% acetic acid hydrate were administered to the rat right eye by dropping in the central part of the cornea at 9.00 am once daily every day for 1 week. As a control, 0.1% aqueous acetic acid solution was administered to the left eye in the same manner as described above. The same experiment was performed in 6 rats. The reason why 0.1% aqueous acetic acid solution was used was that the PIP compound of the present invention was dissolved in this aqueous solution. Furthermore, to prevent the occurrence of an infection, antibiotic eye ointment Tarivid Ophthalmic Ointment 0.3% (Santen Pharmaceutical Co., Ltd.) was administered at 5.00 pm every day. Furthermore, the drug was administered to 2 rats in which an alkali burn was not induced as controls. Rats were observed every day at the time of instillation and application of an eye ointment, and the cornea was observed and photographed every evening. […] By utilizing this property, the corneal injury was evaluated according to the cornea fluorescein test using a FLUORES test paper (Showa Yakuhin Kako Co., Ltd.) that can test the corneal condition.
# The cornea was observed until complete reepithelialization was observed. When the fluorescence staining of the cornea was not observed, complete reepithelialization was defined.
# Transparency of the cornea was evaluated as follows. […]
# [6] = tested on: double-stranded oligo DNA containing the AP-1 binding site that corresponds to the TGF-β1 promoter; assay: Gel shift assay of PIP binding to target DNA; design: species or system rat
# Description: For the gel shift assay, a fluorescence-labeled match oligo DNA containing the AP-1 binding site that corresponds to the TGF-β1 promoter was synthesized. Sense and antisense oligo DNA suitable for the test were annealed to prepare a double-stranded oligo DNA. 1 μM DNA was incubated with 50 μM PIP compound at 37° C. for 1 hour, separated by electrophoresis using 20% polyacrylamide gel, and visualized using a fluorescence image analyzer LAS-3000 (Fuji Film, Tokyo, Japan).
Structure (SMILES),FITC fluorescence in the cornea [1],reporter gene expression induced by adding PMA [2],binding affinity for target DNA relative to the mismatch polyamide [3] [times],"Kd ([3]; target DNA, 0-300 nM) [nM]",TGF-β1 immunohistology versus controls [4],healing of corneal opacity and ulceration [5],healing of corneal defect (severity of corneal defect) ([5]; listed as TGF-β (GBP1201) PIP),healing of corneal defect (severity of corneal defect) ([5]; listed as rTGF-β (GBP1201) PIP compound),"binding to the target DNA (gel shift) ([6]; 1 μM DNA, 50 μM PIP compound, 37° C., 1 hour)",binding to the mismatch polyamide (gel shift (so in the source)) ([6]; gel shift assay)
CN(C)CCCNC(=O)CCNC(=O)c1nc(NC(=O)c2nc(NC(=O)CCNC(=O)c3cc(NC(=O)c4cc(NC(=O)c5nc(NC(=O)CCCNC(=O)c6cc(NC(=O)c7cc(NC(=O)c8nc(NC(=O)CCNC(=O)c9cc(NC(=O)c%10cc(NC(=O)CCNC(=S)Nc%11ccc%12c(c%11)C(=O)OC%12%11c%12ccc(O)cc%12Oc%12cc(O)ccc%12%11)cn%10C)cn9C)cn8C)cn7C)cn6C)cn5C)cn4C)cn3C)cn2C)cn1C [rTGF-β (GBP1201) FITC],green FITC fluorescence is observed in the corneal epithelium and in the nucleus of interstitial cells in the cornea,,,,,,,,,
CC(=O)Nc1cc(C(=O)Nc2cc(C(=O)NCCC(=O)Nc3cn(C)c(C(=O)Nc4cc(C(=O)Nc5cc(C(=O)NCCCC(=O)Nc6cn(C)c(C(=O)Nc7cc(C(=O)Nc8cc(C(=O)NCCC(=O)Nc9cn(C)c(C(=O)Nc%10cn(C)c(C(=O)NCCC(=O)NCCCN(C)C)n%10)n9)n(C)c8)n(C)c7)n6)n(C)c5)n(C)c4)n3)n(C)c2)n(C)c1 [rTGF-β (GBP1201)],,inhibited,149,5.12,No immunohistological difference,significantly better than the control,significantly earlier (approximately twice as fast) than the control,significantly better than the control,bound specifically to the target DNA,did not bind to the mismatch polyamide

# Source: patent US20120071628A1, “TOPICAL THERAPEUTIC AGENT FOR OPHTHALMIC DISEASES COMPRISING COMPOUND CAPABLE OF BINDING SPECIFICALLY TO DNA SEQUENCE” (NIHON UNIVERSITY, priority 2009, published 2012)
